Paper PMC6952414 (Nature Communications, 2020)
Where “and” joins values, the source holds several entries; their conditions need not be identical. Identical values can stand only once. Like-named read-outs stand apart in the source and are kept apart here. Positions of bridges follow the written chain, without caps; N, C: chain ends. Non-standard residues stand in square brackets, D forms with d. Chains are numbered I, II in the order given. No end group written: not given here. Ahx = NCCCCCC(=O)O

How the values were obtained:
IAV strain PR8 [1] = test system: IAV strain PR8
HA1/HA2 = format: binding, IAV H1N1 strain A/Puerto Rico/8/1934 (PR8)
[2] = test system: recombinant HA / α2-6sialyllactose-PAA; format: binding, IAV H1N1 strain A/Puerto Rico/8/1934 (PR8)
PR8-HA1/HA2 = format: binding, IAV H1N1 strain A/Puerto Rico/8/1934 (PR8)
HA [3] = format: biochemical, IAV H1N1 strain A/Puerto Rico/8/1934 (PR8)
LC3-II = format: cell-based, canine
IAV strain PR8 [4] = format: cell-based, IAV H1N1 strain A/Puerto Rico/8/1934 (PR8)
MDCK cells [5] = test system: MDCK cells
IAV strain PR8 [6] = test system: IAV strain PR8; remark: listed apart in the source
[7] = test system: recombinant HA derived from H5N1 A/chicken/Yamaguchi/7/2004 strain; format: binding, Influenza A virus H5N1
IAV strain PR8 [8] = format: cell-based, IAV H1N1 strain A/Puerto Rico/8/1934 (PR8); remark: listed apart in the source
[9] = biological target: immobilized recombinant HA (Influenza A virus, UniProt P03452); format: binding, IAV H1N1 strain A/Puerto Rico/8/1934 (PR8)
IAV strain PR8 [10] = format: cell-based, IAV H1N1 strain A/Puerto Rico/8/1934 (PR8); remark: listed apart in the source
HA [11] = format: cell-based, IAV H1N1 strain A/Puerto Rico/8/1934 (PR8)
IAV strain PR8 [12] = format: cell-based, IAV H1N1 strain A/Puerto Rico/8/1934 (PR8); remark: listed apart in the source
IAV strain PR8 [13] = format: cell-based, IAV H1N1 strain A/Puerto Rico/8/1934 (PR8); remark: listed apart in the source
PR8-HA0 = format: binding, IAV H1N1 strain A/Puerto Rico/8/1934 (PR8)
IAV strain PR8 [14] = format: cell-based, IAV H1N1 strain A/Puerto Rico/8/1934 (PR8); remark: listed apart in the source
cell surface HA = format: cell-based, IAV H1N1 strain A/Puerto Rico/8/1934 (PR8)
IAV strain PR8 [15] = format: cell-based, IAV H1N1 strain A/Puerto Rico/8/1934 (PR8); remark: listed apart in the source
virus NP mRNA = format: cell-based, IAV H1N1 strain A/Puerto Rico/8/1934 (PR8)
[16] = test system: IAV particles (strain PR8); format: biochemical, IAV H1N1 strain A/Puerto Rico/8/1934 (PR8)
IAV strain PR8 [17] = format: cell-based, IAV H1N1 strain A/Puerto Rico/8/1934 (PR8); remark: listed apart in the source
IAV strain PR8 [18] = experiment: microbe, parasite or virus in culture; details: Influenza A virus, PR8, MDCK, read-out: EC50 (μM), IAV cytopathicity
IAV strain PR8 [19] = test system: IAV strain PR8; parameters: species or system BALB/c mice; details: mouse, in vivo
MDCK cells [20] = details: 5 mM for 16 h
IAV strain PR8 [21] = format: cell-based, IAV H1N1 strain A/Puerto Rico/8/1934 (PR8); remark: listed apart in the source
IAV strain PR8 [22] = format: cell-based, IAV H1N1 strain A/Puerto Rico/8/1934 (PR8); remark: listed apart in the source

immobilized recombinant HA, sequence (P03452 18-565 limits assumed): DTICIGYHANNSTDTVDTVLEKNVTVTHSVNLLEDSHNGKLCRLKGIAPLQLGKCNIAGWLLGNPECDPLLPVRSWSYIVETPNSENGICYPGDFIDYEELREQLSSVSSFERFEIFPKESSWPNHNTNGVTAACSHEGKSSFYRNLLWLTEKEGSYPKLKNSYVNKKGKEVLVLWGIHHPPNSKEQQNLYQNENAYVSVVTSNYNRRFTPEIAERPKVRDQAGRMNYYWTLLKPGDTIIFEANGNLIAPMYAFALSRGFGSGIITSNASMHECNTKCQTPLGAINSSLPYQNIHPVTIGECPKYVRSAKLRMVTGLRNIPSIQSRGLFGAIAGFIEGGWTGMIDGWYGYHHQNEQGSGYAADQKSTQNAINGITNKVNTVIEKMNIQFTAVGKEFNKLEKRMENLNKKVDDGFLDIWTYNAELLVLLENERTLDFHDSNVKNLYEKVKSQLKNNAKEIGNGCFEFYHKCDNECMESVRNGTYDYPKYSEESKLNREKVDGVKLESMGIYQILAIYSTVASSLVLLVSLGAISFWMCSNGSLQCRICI

## CSCC[C@H](N)C(=O)N[C@@H](C)C(=O)N[C@@H](C)C(=O)NCCCCCC(=O)NCCCC[C@H](NC(=O)CCCCCNC(=O)[C@H](C)NC(=O)[C@H](C)NC(=O)[C@@H](N)CCSC)C(=O)NCCCC[C@H](NC(=O)[C@H](CCCCNC(=O)CCCCCNC(=O)[C@H](C)NC(=O)[C@H](C)NC(=O)[C@@H](N)CCSC)NC(=O)CCCCCNC(=O)[C@H](C)NC(=O)[C@H](C)NC(=O)[C@@H](N)CCSC)C(=O)O [MA-tet]
IAV strain PR8 [1]
  inhibition of IAV cytopathicity (in words): did not inhibit the cytopathicity

## I: MARRPVNHFA[Ahx]KK-NH2 / II: MARRPVNHFA[Ahx]K / III: MARRPVNHFA[Ahx] / IV: MARRPVNHFA[Ahx] (amide I:12-IV:C, I:13-II:C, II:12-III:C) [PVF-tet]
HA1/HA2
  effect of proteolytic cleavage of recombinant HA into HA1/HA2 on binding (in words): reduced the binding of PVF-tet to HA
[2]
  inhibition of the interaction between HA and α2,6-sialyllactose polymer (in words): also efficiently inhibited the binding of HA to α2-6 sialyllactose-polymer
PR8-HA1/HA2
  binding to infectious IAV particles with HA1/HA2 (in words): did not bind to infectious IAV particles with HA1/HA2
HA [3]
  formation of highly clustered HA (in words): induced the formation of highly clustered HA
IAV strain PR8 [1]; 24 h
  EC50: 1400 nM
LC3-II
  formation of LC3-II (in words): further enhanced the formation of LC3-II
IAV strain PR8 [4]
  cell viability: 103 ± 9% and 85 ± 9%
  inhibition of cytopathicity when treated from 2 h post-infection for limited periods (in words): still efficiently inhibited the cytotoxicity
MDCK cells [5]
  effect of FBS on incorporation into cells (in words): enhanced by the presence of fetal bovine serum (FBS)
  incorporation into MDCK cells (in words): can be incorporated into MDCK cells at 37 °C
IAV strain PR8 [6]
  inhibition of IAV cytopathicity in Caco-2 cells (in words): equally inhibited cytopathicity induced by both low and high MOI infection
[7]
  binding to recombinant H5N1 HA (in words): bound
IAV strain PR8 [8]
  anti-viral activity in PIK3C3-knockout clones (in words): significantly suppressed in the clones
[9]
  Rmax: 1004 RU
  binding to HA (in words): bound to HA with high affinity
IAV strain PR8 [10]
  NP-positive cells (%): 51.6% and 50.5% and 44.6% and 50.0%
  virus entry into target cells, NP-positive cells (in words): did not inhibit virus entry into target cells
HA [11]
  amount of newly synthesized HA in infected cells (in words): accumulated in a time-dependent manner
IAV strain PR8 [12]
  time of administration after initial IAV infection at which cytopathicity is still inhibited: up to 9 h
IAV strain PR8 [13]
  fold increase of virus titer over the initial virus titer: about 50 fold
  inhibition of IAV propagation (in words): inhibited IAV propagation to a greater degree than fetuin
PR8-HA0
  binding to non-infectious IAV particles with HA0 (in words): did bind with remarkable efficacy to non-infectious IAV particles with HA0
IAV strain PR8 [14]
  anti-viral activity in ULK1-knockout clones (in words): significantly suppressed in the clones
Cell surface HA
  amount of HA on the plasma membrane (in words): marked reduction of the amount of HA that was present on the plasma membrane
IAV strain PR8 [15]
  fusion process monitored by fluorescently labeled virus (in words): did not affect the fusion process
Virus NP mRNA
  NP mRNA synthesis (in words): did not affect
[16]
  inhibition of IAV-induced hemagglutination (in words): did not inhibit IAV-induced hemagglutination
IAV strain PR8 [17]
  Cell viabilitiy(%): 136.2% and 97.5% and 109.1% and 71.8% and 88.5% and 71.7%
  anti-IAV activity in the ABCA3-knockout clone (in words): retained its anti-IAV activity

## RRPVNHD [PVD-tet]
IAV strain PR8 [1]
  inhibition of IAV cytopathicity (in words): failed to inhibit IAV cytopathicity
MDCK cells [5]
  incorporation into MDCK cells (in words): less cell-penetrating

## RRRVNHH [RVH-tet]
IAV strain PR8 [1]
  inhibition of IAV cytopathicity (in words): efficiently inhibited the cytopathicity in a dose-dependent manner

## CC(=O)N[C@H]1[C@H]([C@H](O)[C@H](O)CO)OC(C(=O)O)=C[C@@H]1N=C(N)N [Zanamivir, zanamivir]
IAV strain PR8 [18]
  EC50: 0.2 µM
IAV strain PR8 [19]
  body weight loss (in words): attenuated the weight loss
  mice rescued from mortality: 100%

## 3-MA
MDCK cells [20]
  cell viability of uninfected MDCK cells (in words): did not affect the cell viability

## CO/C1=C\C(C)=C\[C@@H](C)[C@@H](O)[C@@H](C)C/C(C)=C/C=C/[C@H](OC)[C@@H]([C@@H](C)[C@@H](O)[C@H](C)[C@@]2(O)C[C@@H](O)[C@H](C)[C@@H](C(C)C)O2)OC1=O [bafilomycin A1]
IAV strain PR8 [10]
  NP-positive cells (%): 5.3% and 2.2% and 2.8% and 3.8%
  virus entry into target cells, NP-positive cells (in words): completely inhibited virus entry into cells
IAV strain PR8 [12]
  time of administration after initial IAV infection at which cytopathicity is still inhibited: < 5 h
IAV strain PR8 [15]
  fusion process monitored by fluorescently labeled virus (in words): efficiently inhibited both events
Virus NP mRNA
  NP mRNA synthesis (in words): efficiently inhibited both events
  Relative mRNA expression (fold increase): 0.134 fold increase and 0.131 fold increase and 0.156 fold increase and 0.244 fold increase and 0.237 fold increase and 0.138 fold increase and 0.155 fold increase

## fetuin
HA1/HA2
  effect of proteolytic cleavage of recombinant HA into HA1/HA2 on binding (in words): also reduced by the cleavage of HA
IAV strain PR8 [1]
  inhibition of IAV cytopathicity (in words): showed no inhibitory effect at all
IAV strain PR8 [13]
  Virus propagation (fold increase): 350.0 fold increase and 466.7 fold increase and 483.3 fold increase
PR8-HA0
  binding to non-infectious IAV particles with HA0 (in words): exhibited much more binding
IAV strain PR8 [21]
  inhibition of IAV cytopathicity at low MOI (in words): had the greatest inhibitory effect
[16]
  inhibition of IAV-induced hemagglutination (in words): efficiently inhibited the activity

## asialofetuin [reference compound]
PR8-HA1/HA2
  binding to infectious IAV particles with HA1/HA2 (in words): exhibited no binding
PR8-HA0
  binding to non-infectious IAV particles with HA0 (in words): exhibited no binding

## C[C@@H]1COCCN1c1cc(=O)n2c(n1)N(Cc1cncc(Cl)c1)[C@H](C(F)(F)F)CC2 [SAR405]
IAV strain PR8 [22]
  effect on the dose-dependent anti-viral activity of PVF-tet (in words): suppressed the dose-dependent anti-viral activity of PVF-tet
